Article PMC4460250, “Systems Pharmacology Dissecting Holistic Medicine for Treatment of Complex Diseases: An Example Using Cardiocerebrovascular Diseases Treated by TCM” (Evidence-based Complementary and Alternative Medicine : eCAM, 2015)
Where two headings read alike, the source gives them in different places.

Tests used:
[1] = molecular target: PIM1 (Homo sapiens, UniProt P11309); assay: PIM1 inhibition assay (ligand-binding assay, manufacturer's instructions); type: biochemical; settings: Bliss method, three independent determinations, read-out: IC50 (μM): mean ± SD
[2] = cited from earlier work
[3] = Human intestinal absorption percentage values of the PreHIA data set (732 compounds, Table S2); settings: class from HIA value
[4] = molecular target: T1, PTGS1 (Ovis aries, UniProt P05979); assay: PTGS1 inhibition assay (ligand-binding assay, manufacturer's instructions); type: biochemical; settings: Bliss method, three independent determinations, read-out: IC50 (μM): mean ± SD
T1 sequence (P05979 25-600): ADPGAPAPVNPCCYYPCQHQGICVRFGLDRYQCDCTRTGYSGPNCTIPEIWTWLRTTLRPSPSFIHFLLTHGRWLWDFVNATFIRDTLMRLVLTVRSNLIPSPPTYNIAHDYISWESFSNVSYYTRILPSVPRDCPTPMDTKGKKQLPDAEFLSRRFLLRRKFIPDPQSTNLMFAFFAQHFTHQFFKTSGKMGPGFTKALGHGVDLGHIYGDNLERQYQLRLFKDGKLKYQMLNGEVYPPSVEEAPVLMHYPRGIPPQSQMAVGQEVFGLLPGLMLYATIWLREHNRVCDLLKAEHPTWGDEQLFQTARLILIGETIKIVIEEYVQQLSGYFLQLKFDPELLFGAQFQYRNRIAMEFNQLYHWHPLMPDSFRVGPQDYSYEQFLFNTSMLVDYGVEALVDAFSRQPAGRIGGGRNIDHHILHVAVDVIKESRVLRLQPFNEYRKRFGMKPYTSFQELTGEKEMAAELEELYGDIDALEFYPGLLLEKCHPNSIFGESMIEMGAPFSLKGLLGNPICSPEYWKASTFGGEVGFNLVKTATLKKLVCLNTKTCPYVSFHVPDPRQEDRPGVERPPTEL
Experimental: To validate the practicability and efficiency of above methods, the inhibitory effects of drugs on predicted targets were quantified by ligand-binding assays according to the manufacturer's instructions. The drug-target interactions were selected at random and readily available on the market, respectively. […] Targets PIM1 and PTGS1 were respectively purchased from Cayman Chemical, Ann Arbor, MI, USA and CycLex, Japan. The purity of all the compounds is >98%. All drugs were dissolved in DMS and freshly prepared due to loss of activity under long-term storage. IC50 values were determined using the Bliss method with three independent determinations.

[5] = human, PreHIA data set, value given as fraction

Chain of PIM1 (P11309 whole entry): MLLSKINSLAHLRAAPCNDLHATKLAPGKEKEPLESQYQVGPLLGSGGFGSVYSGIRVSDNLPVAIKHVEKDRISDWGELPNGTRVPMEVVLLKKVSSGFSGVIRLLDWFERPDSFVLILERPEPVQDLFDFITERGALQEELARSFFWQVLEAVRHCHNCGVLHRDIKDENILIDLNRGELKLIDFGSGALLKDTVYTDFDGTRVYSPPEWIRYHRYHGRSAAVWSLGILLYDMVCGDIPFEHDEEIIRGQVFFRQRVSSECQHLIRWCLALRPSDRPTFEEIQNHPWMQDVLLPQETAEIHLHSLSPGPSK

Row | SMILES | IC50 [1] | HIA(Human Intestinal Absorption) [2, 5] | Class(High: HIA value ≥0.7; Low: HIA value < 0.7) [3] | IC50 [4] | HIA(Human Intestinal Absorption) ([2]; in vivo)
1 | O=c1c(O[C@@H]2O[C@H](CO)[C@@H](O)[C@H](O)[C@H]2O)c(-c2ccc(O)cc2)oc2cc(O)cc(O)c12 [Astragalin] | 62 ± 9.7 µM | – | – | – | –
2 | COCCOc1cnc(NS(=O)(=O)c2ccccc2)nc1 [Glymidine] | – | 0.95 | High (High: HIA value ≥0.7) | – | –
3 | N=C(N)NC(=O)Cc1c(Cl)cccc1Cl [Guanfacine] | – | 1 | High (High: HIA value ≥0.7) | – | –
4 | O=c1c(O[C@@H]2O[C@H](CO)[C@@H](O)[C@H](O)[C@H]2O)c(-c2ccc(O)cc2)oc2cc(O)cc(O)c12 [Kaempferol-3-glucoside] | – | – | – | 74 µM | –
5 | O=C(c1ccc(F)cc1)C1CCN(CCn2c(=O)[nH]c3ccccc3c2=O)CC1 [Ketanserin] | – | 1 | High (High: HIA value ≥0.7) | – | –
6 | CC(=O)N1CCN(c2ccc(OCC3COC(Cn4ccnc4)(c4ccc(Cl)cc4Cl)O3)cc2)CC1 (stereo not shown) [Ketoconazole] | – | 0.75 | High (High: HIA value ≥0.7) | – | –
7 | CN1CCC(=C2c3ccccc3CC(=O)c3sccc32)CC1 [Ketotifen] | – | 0.9 | High (High: HIA value ≥0.7) | – | –
8 | CCOC(=O)C1=C(C)NC(C)=C(C(=O)OCC)C1c1ccccc1/C=C/C(=O)OC(C)(C)C [Lacidipine] | – | 0.98 | High (High: HIA value ≥0.7) | – | –
9 | C[C@@H]1CC(=O)NN=C1c1ccc(NN=C(C#N)C#N)cc1 [Levosimendan] | – | 0.9 | High (High: HIA value ≥0.7) | – | –
10 | CN1C(C(=O)Nc2ccccn2)=C(O)c2sc(Cl)cc2S1(=O)=O [Lornoxicam] | – | 1 | High (High: HIA value ≥0.7) | – | –
11 | C#C[C@]1(O)CC[C@H]2[C@@H]3CCC4=CCCC[C@@H]4[C@H]3CC[C@@]21C [Lynestrenol] | – | 1 | High (High: HIA value ≥0.7) | – | –
12 | Cc1ccc(Cl)c(Nc2ccccc2C(=O)O)c1Cl [Meclofenamic_acid] | – | 1 | High (High: HIA value ≥0.7) | – | –
13 | COc1ccc2cc(CCC(C)=O)ccc2c1 [Nabumetone] | – | 0.8 | High (High: HIA value ≥0.7) | – | –
14 | CNS(=O)(=O)CCc1ccc2[nH]cc(C3CCN(C)CC3)c2c1 [Naratriptan] | – | 0.7 | High (High: HIA value ≥0.7) | – | –
15 | O=[N+]([O-])c1ccc(O)c2ncccc12 [Nitroxoline] | – | 1 | High (High: HIA value ≥0.7) | – | –
16 | CCOC(=O)C1=C[C@@H](OC(CC)CC)[C@H](NC(C)=O)[C@@H](N)C1 [Oseltamivir] | – | 0.75 | High (High: HIA value ≥0.7) | – | –
17 | O=c1[nH]c2ccccc2n1CCCN1CCN(C(c2ccccc2)c2ccccc2)CC1 [Oxatomide] | – | 1 | High (High: HIA value ≥0.7) | – | –
18 | CC[N+]1(C)[C@@H]2CC(OC(=O)[C@H](CO)c3ccccc3)C[C@H]1[C@@H]1O[C@@H]12 (stereo partly shown) [Oxitropium] | – | 0.16 | Low (Low: HIA value < 0.7) | – | –
19 | CC(C)NCC(O)COc1ccc(CCNC(=O)NC(C)C)cc1 (stereo not shown) [Pafenolol] | – | 0.29 | Low (Low: HIA value < 0.7) | – | –

Row | SMILES | IC50 [1] | HIA(Human Intestinal Absorption) [2, 5] | Class(High: HIA value ≥0.7; Low: HIA value < 0.7) [3] | IC50 [4] | HIA(Human Intestinal Absorption) ([2]; in vivo)
20 | COc1ccnc(C[S+]([O-])c2nc3ccc(OC(F)F)cc3[nH]2)c1OC (stereo not shown) [Pantoprazole] | – | 0.77 | High (High: HIA value ≥0.7) | – | –
21 | C[N+]1(CCCCC[N+]2(C)CCCC2)CCCC1 [Pentolinium] | – | 0.05 | Low (Low: HIA value < 0.7) | – | –
22 | CCc1[nH]c(=O)[nH]c1C(=O)c1ccncc1 [Piroximone] | – | 0.8 | High (High: HIA value ≥0.7) | – | –
23 | CCCOC(C(=O)OC1CCN(C)CC1)(c1ccccc1)c1ccccc1 [Propiverine] | – | 0.84 | High (High: HIA value ≥0.7) | – | –
24 | CCCc1cc(C(N)=S)ccn1 [Protionamide] | – | 0.9 | High (High: HIA value ≥0.7) | – | –
25 | Oc1ccc(C(O)C2CCCCN2)cc1O (stereo not shown) [Rimiterol] | – | 0.48 | Low (Low: HIA value < 0.7) | – | –
26 | O=P(O)(O)C(O)(Cc1cccnc1)P(=O)(O)O [Risedronic_acid] | – | 0.01 | Low (Low: HIA value < 0.7) | – | –
27 | CCCN(CCC)CCc1cccc2c1CC(=O)N2 [Ropinirole] | – | 0.98 | High (High: HIA value ≥0.7) | – | –
28 | C[C@@H]1O[C@@H](OC[C@H]2O[C@@H](Oc3c(-c4ccc(O)c(O)c4)oc4cc(O)cc(O)c4c3=O)[C@H](O)[C@@H](O)[C@@H]2O)[C@H](O)[C@H](O)[C@H]1O [Rutin] | 57 ± 5.8 µM | – | – | – | –
29 | Cn1nnc2c(C(N)=O)ncn2c1=O [Temozolomide] | – | 1 | High (High: HIA value ≥0.7) | – | –
30 | NC(=O)N1C(=O)/C(=C(\O)c2cccs2)c2cc(Cl)ccc21 [Tenidap] | – | – | High (High: HIA value ≥0.7) | – | 0.89
31 | CCO[C@@H](Cc1ccc(OCCc2ccc(OS(C)(=O)=O)cc2)cc1)C(=O)O [Tesaglitazar] | – | 1 | High (High: HIA value ≥0.7) | – | –
32 | CSc1ccc2ncn(/C=C/C(=O)O)c(=O)c2c1 [Tiacrilast] | – | 0.99 | High (High: HIA value ≥0.7) | – | –
33 | COc1cc(C)c([S+](C)[O-])cc1OC (stereo not shown) [Tolmesoxide] | – | 0.98 | High (High: HIA value ≥0.7) | – | –
34 | COc1ccc2c(C(=S)N(C)CC(=O)O)cccc2c1C(F)(F)F [Tolrestat] | – | 0.66 | Low (Low: HIA value < 0.7) | – | –
35 | O=c1n(CCCN2CCN(c3cccc(Cl)c3)CC2)nc2ccccn12 [Trazodone] | – | 1 | High (High: HIA value ≥0.7) | – | –
36 | CC1(C)O[C@@H]2C[C@H]3[C@@H]4CCC5=CC(=O)C=C[C@]5(C)[C@@]4(F)[C@@H](O)C[C@]3(C)[C@]2(C(=O)CO)O1 [Triamcinolone_acetonide] | – | 0.9 | High (High: HIA value ≥0.7) | – | –
37 | CN1[C@@H]2CC[C@H]1C[C@@H](OC(=O)c1c[nH]c3ccccc13)C2 [Tropisetron] | – | 0.95 | High (High: HIA value ≥0.7) | – | –
38 | CC(C(=O)O)c1ccc(C2CCCC(=NO)C2)cc1 (stereo not shown) [Ximoprofen] | – | 0.98 | High (High: HIA value ≥0.7) | – | –
